According to ChEMBL document CHEMBL4507270 (2021):

Assays:
[1] = target: Serine/threonine-protein kinase MARK1 (Homo sapiens) (UniProt Q9P0L2)
[2] = target: Mitogen-activated protein kinase kinase kinase 9 (Homo sapiens) (UniProt P80192)
[3] = target: Dual specificity mitogen-activated protein kinase kinase 4 (Homo sapiens) (UniProt P45985)
[4] = target: Tyrosine-protein kinase TXK (Homo sapiens) (UniProt P42681)
[5] = target: Alpha-1D adrenergic receptor (Homo sapiens) (UniProt P25100); settings: Compound concentration 10.0 uM
[6] = target: Serine/threonine-protein kinase Nek6 (Homo sapiens) (UniProt Q9HC98)
[7] = test system: Phosphatidylinositol 4,5-bisphosphate 3-kinase catalytic subunit alpha isoform (Homo sapiens), P42336 [H1047Y]
[8] = target: Ephrin type-A receptor 8 (Homo sapiens) (UniProt P29322)
[9] = target: Serine/threonine-protein kinase PAK 4 (Homo sapiens) (UniProt O96013)
[10] = target: Ribosomal protein S6 kinase alpha-4 (Homo sapiens) (UniProt O75676)
[11] = target: Kappa-type opioid receptor (Homo sapiens, UniProt P41145); test: GPCRScan assay: inhibition of KOR; design: radioligand conc. used [nm] 0.6 – 1.2, parental cells stable HEK
[12] = target: Phosphorylase b kinase gamma catalytic chain, skeletal muscle/heart isoform (Homo sapiens) (UniProt Q16816)
[13] = target: Aurora kinase C (Homo sapiens) (UniProt Q9UQB9)
[14] = target: BDNF/NT-3 growth factors receptor (Homo sapiens) (UniProt Q16620)
[15] = target: Mitogen-activated protein kinase kinase kinase kinase 1 (Homo sapiens) (UniProt Q92918)
[16] = target: Serine/threonine-protein kinase 17B (Homo sapiens) (UniProt O94768)
[17] = target: Testis-specific serine/threonine-protein kinase 3 (Homo sapiens) (UniProt Q96PN8)
[18] = target: Tyrosine-protein kinase Blk (Homo sapiens) (UniProt P51451)
[19] = target: Serine/threonine-protein kinase 38 (Homo sapiens) (UniProt Q15208)
[20] = target: Serine/threonine-protein kinase Nek3 (Homo sapiens) (UniProt P51956)
[21] = target: Dual specificity protein kinase CLK3 (Homo sapiens) (UniProt P49761)
[22] = test system: Tyrosine-protein kinase ABL1 (Homo sapiens), P00519 [Q252H]
[23] = test system: Epidermal growth factor receptor (Homo sapiens), P00533 [UNDEFINED MUTATION]
[24] = target: Tyrosine-protein kinase Fes/Fps (Homo sapiens) (UniProt P07332)
[25] = target: NT-3 growth factor receptor (Homo sapiens) (UniProt Q16288)
[26] = target: Mitogen-activated protein kinase kinase kinase 13 (Homo sapiens) (UniProt O43283)
[27] = target: Casein kinase I isoform gamma-1 (Homo sapiens) (UniProt Q9HCP0)
[28] = target: Proto-oncogene tyrosine-protein kinase ROS (Homo sapiens) (UniProt P08922)
[29] = target: TGF-beta receptor type-1 (Homo sapiens) (UniProt P36897)
[30] = target: Sodium-dependent dopamine transporter (Homo sapiens) (UniProt Q01959); settings: Compound concentration 10.0 uM
[31] = target: Cyclin-dependent kinase-like 2 (Homo sapiens) (UniProt Q92772)
[32] = target: Serine/threonine-protein kinase SIK2 (Homo sapiens) (UniProt Q9H0K1)
[33] = target: Tyrosine-protein kinase Tec (Homo sapiens) (UniProt P42680)
[34] = target: SNF-related serine/threonine-protein kinase (Homo sapiens) (UniProt Q9NRH2)
[35] = target: Protein kinase C eta type (Homo sapiens) (UniProt P24723)
[36] = target: Receptor tyrosine-protein kinase erbB-3 (Homo sapiens) (UniProt P21860)
[37] = target: Beta-3 adrenergic receptor (Homo sapiens, UniProt P13945); settings: Compound concentration 10.0 uM
[38] = target: Cyclin-dependent kinase-like 3 (Homo sapiens) (UniProt Q8IVW4)
[39] = target: Macrophage colony-stimulating factor 1 receptor (Homo sapiens) (UniProt P07333)
[40] = target: Fibroblast growth factor receptor 1 (Homo sapiens, UniProt P11362)
[41] = target: Bone morphogenetic protein receptor type-1A (Homo sapiens) (UniProt P36894)
[42] = target: Tyrosine-protein kinase JAK1 (Homo sapiens) (UniProt P23458)
[43] = target: Mitogen-activated protein kinase 10 (Homo sapiens) (UniProt P53779)
[44] = target: Dual serine/threonine and tyrosine protein kinase (Homo sapiens) (UniProt Q6XUX3)
[45] = target: Death-associated protein kinase 2 (Homo sapiens) (UniProt Q9UIK4)
[46] = Compound concentration 1000.0 nM
[47] = Compound concentration 100.0 nM

Sequence of Kappa-type opioid receptor (P41145 whole entry, canonical isoform): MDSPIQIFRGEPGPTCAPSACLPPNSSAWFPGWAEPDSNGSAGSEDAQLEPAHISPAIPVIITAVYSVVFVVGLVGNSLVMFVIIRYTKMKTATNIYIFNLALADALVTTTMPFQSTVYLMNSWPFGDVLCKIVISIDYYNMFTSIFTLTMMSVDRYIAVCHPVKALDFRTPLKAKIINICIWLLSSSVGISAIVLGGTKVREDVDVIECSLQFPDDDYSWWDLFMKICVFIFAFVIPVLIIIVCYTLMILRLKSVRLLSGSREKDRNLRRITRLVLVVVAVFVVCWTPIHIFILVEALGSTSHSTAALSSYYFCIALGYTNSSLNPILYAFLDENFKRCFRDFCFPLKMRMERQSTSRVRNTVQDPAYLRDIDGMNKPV
Sequence of Sodium-dependent dopamine transporter (Homo sapiens) (Q01959 whole entry): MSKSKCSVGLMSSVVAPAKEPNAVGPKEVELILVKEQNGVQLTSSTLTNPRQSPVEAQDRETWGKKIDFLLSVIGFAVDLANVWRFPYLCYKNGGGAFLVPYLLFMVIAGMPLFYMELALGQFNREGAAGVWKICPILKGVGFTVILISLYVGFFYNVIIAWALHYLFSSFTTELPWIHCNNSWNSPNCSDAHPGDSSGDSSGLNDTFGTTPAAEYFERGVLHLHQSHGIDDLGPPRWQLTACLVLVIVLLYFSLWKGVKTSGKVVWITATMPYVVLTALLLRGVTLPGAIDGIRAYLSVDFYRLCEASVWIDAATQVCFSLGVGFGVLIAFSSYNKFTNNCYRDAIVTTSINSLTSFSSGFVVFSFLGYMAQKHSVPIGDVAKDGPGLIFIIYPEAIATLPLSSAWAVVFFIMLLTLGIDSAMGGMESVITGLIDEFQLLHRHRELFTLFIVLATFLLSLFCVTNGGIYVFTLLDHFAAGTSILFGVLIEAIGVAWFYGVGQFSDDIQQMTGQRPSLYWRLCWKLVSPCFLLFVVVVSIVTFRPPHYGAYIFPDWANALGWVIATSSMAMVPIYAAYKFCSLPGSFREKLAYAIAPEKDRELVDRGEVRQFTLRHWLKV
Sequence of Receptor tyrosine-protein kinase erbB-3 (Homo sapiens) (P21860 whole entry): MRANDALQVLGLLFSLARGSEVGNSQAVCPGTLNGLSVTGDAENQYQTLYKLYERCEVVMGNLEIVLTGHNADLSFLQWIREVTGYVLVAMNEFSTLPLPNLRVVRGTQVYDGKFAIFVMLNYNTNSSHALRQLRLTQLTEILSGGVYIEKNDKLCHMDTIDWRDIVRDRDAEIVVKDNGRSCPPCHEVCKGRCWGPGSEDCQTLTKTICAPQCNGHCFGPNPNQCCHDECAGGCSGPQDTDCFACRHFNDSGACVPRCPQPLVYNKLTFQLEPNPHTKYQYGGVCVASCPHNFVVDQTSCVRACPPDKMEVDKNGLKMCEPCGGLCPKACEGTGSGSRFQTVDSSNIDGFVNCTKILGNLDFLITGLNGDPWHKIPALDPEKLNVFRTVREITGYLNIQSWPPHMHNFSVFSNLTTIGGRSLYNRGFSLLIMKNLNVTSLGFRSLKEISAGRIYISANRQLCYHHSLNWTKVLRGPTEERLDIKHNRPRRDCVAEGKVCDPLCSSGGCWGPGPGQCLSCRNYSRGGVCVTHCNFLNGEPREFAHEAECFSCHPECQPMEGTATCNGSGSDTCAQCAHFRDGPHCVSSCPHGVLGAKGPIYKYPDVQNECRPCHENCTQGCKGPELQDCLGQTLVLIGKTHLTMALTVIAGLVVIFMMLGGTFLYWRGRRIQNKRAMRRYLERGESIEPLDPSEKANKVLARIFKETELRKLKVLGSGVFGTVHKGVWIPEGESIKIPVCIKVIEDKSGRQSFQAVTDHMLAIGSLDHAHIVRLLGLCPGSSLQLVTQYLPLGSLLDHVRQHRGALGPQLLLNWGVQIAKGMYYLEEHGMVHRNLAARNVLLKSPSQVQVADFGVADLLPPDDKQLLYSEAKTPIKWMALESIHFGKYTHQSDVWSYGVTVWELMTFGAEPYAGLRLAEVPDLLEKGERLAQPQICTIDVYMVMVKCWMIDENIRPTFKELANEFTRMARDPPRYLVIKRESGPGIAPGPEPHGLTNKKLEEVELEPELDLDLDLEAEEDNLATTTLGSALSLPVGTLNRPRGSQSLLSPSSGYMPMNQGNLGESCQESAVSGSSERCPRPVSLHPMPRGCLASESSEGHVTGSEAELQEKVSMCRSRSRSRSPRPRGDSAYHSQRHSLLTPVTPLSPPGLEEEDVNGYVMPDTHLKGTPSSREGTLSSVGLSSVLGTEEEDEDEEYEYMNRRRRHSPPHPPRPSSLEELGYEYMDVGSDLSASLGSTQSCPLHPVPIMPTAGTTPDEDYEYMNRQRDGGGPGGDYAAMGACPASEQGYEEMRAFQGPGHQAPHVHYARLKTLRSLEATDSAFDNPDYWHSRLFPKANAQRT
Sequence of Phosphorylase b kinase gamma catalytic chain, skeletal muscle/heart isoform (Homo sapiens) (Q16816 whole entry, looked up, canonical isoform): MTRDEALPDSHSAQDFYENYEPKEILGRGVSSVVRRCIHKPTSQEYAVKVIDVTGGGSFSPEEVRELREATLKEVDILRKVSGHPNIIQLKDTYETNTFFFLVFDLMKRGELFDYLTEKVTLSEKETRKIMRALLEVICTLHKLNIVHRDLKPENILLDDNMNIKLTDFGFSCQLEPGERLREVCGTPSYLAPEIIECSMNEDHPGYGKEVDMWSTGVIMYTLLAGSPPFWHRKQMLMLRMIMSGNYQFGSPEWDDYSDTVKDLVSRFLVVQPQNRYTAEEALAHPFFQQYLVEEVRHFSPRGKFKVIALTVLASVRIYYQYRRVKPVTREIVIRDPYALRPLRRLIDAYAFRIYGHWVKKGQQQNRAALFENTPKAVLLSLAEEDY
Sequence of Serine/threonine-protein kinase PAK 4 (Homo sapiens) (O96013 whole entry, looked up): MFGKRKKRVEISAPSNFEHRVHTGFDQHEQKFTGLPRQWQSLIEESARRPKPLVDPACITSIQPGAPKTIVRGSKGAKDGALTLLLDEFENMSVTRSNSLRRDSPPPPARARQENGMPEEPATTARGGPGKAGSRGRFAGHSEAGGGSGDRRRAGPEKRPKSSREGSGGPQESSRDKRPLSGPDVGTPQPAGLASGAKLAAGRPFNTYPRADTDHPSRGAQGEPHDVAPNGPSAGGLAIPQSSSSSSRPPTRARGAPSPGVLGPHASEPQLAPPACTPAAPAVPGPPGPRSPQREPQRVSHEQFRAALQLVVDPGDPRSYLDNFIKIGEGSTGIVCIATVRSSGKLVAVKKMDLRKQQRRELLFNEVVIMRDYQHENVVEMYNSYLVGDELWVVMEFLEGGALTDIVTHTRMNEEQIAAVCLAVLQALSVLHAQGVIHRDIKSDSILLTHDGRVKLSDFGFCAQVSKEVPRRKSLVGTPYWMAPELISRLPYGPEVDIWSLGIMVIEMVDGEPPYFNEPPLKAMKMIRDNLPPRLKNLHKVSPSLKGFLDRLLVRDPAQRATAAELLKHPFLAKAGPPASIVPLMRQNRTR
Sequence of TGF-beta receptor type-1 (Homo sapiens) (P36897 whole entry): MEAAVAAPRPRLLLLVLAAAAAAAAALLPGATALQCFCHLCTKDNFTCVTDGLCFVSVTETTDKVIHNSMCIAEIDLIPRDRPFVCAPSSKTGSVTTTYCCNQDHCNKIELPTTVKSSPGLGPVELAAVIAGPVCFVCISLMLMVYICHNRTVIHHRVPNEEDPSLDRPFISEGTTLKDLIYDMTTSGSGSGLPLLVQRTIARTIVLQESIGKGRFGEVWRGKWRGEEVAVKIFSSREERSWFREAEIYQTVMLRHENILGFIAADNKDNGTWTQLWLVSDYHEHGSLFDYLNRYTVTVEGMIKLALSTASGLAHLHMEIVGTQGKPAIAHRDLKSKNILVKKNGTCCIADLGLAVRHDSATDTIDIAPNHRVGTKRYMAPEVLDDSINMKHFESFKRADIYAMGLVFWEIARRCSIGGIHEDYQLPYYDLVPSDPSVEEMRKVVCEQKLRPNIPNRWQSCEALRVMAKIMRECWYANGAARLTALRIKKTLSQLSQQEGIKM
Sequence of Mitogen-activated protein kinase kinase kinase kinase 1 (Homo sapiens) (Q92918 whole entry, looked up): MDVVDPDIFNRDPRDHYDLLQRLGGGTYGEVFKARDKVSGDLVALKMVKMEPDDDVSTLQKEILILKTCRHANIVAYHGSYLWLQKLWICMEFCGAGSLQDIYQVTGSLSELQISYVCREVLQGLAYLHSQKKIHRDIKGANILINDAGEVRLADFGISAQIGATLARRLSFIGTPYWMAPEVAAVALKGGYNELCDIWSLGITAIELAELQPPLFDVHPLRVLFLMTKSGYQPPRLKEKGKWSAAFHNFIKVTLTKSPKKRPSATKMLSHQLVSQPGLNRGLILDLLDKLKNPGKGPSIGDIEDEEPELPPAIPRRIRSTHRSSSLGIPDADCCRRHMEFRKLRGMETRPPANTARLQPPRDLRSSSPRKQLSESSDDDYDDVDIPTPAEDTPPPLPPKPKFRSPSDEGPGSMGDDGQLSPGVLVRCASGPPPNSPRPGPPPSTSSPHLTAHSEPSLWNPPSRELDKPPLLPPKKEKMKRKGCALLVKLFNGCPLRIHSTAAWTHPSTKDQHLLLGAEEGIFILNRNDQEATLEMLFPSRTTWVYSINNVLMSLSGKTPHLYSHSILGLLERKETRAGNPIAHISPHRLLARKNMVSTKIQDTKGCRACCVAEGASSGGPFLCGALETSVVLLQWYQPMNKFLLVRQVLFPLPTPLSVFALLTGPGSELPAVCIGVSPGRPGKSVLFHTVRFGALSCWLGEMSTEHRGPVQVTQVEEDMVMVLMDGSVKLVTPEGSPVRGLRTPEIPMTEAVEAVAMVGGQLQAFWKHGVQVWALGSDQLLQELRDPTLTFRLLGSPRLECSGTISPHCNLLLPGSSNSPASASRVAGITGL
Sequence of Death-associated protein kinase 2 (Homo sapiens) (Q9UIK4 whole entry, looked up): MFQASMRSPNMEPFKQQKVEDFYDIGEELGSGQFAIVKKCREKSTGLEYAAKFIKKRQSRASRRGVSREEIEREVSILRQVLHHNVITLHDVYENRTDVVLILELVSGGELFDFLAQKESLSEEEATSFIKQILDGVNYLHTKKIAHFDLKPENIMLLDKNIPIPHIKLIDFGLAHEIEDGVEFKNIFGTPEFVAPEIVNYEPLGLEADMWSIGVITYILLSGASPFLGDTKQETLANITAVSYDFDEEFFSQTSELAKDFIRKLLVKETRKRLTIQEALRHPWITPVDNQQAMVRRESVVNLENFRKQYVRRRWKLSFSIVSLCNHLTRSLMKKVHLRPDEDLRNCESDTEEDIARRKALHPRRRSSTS

Cc1cc(NC(=O)c2cccc(S(F)(F)(F)(F)F)c2)cc(-n2ccn3nc(-c4cccnc4)cc23)c1 [BAY-309]
residual activity [1, 46]: 100%
residual activity [2, 46]: 77.7%
residual activity [3, 46]: 76%
residual activity [4, 46]: 56.2%
inhibition [5]: 27.7%
residual activity [6, 46]: 97%
residual activity [7, 46]: 22.9%
residual activity [8, 46]: 100%
residual activity [9, 46]: 91.8%
residual activity [10, 46]: 100%
Ki ([11]; read-out: Ki): 10 µM
residual activity [12, 46]: 100%
residual activity [13, 46]: 86.7%
residual activity [14, 46]: 40%
residual activity [15, 46]: 82.1%
residual activity [16, 46]: 100%
residual activity [17, 46]: 100%
residual activity [18, 46]: 100%
residual activity [19, 46]: 92.3%
residual activity [20, 46]: 50.5%
residual activity [21, 46]: 100%
residual activity [22, 46]: 49.2%
residual activity [23, 46]: 100%
residual activity [24, 46]: 100%
residual activity [25, 46]: 27.2%
residual activity [26, 46]: 100%
residual activity [27, 46]: 100%
residual activity [28, 46]: 92.8%
residual activity [29, 46]: 74.3%
inhibition [30]: 38.1%
residual activity [31, 46]: 100%
residual activity [32, 46]: 100%
residual activity [33, 46]: 100%
residual activity [34, 46]: 100%
residual activity [35, 46]: 100%
residual activity [36, 46]: 49.4%
inhibition [37]: 32.3%
residual activity [38, 46]: 100%
residual activity [39, 46]: 100%
residual activity [40, 46]: 100%
residual activity [41, 46]: 94.4%
residual activity [42, 46]: 100%
residual activity [43, 46]: 64.9%
residual activity [44, 46]: 72.8%
residual activity [45, 46]: 100%

Cc1cc(C)c(-n2ccn3nc(-c4cccnc4)cc23)cc1NC(=O)c1cc(C#N)cc(S(F)(F)(F)(F)F)c1 [BAY-826]
residual activity [1, 47]: 96.7%
residual activity [2, 47]: 79.5%
residual activity [3, 47]: 74.7%
residual activity [4, 47]: 98.3%
inhibition [5]: -2.46%
residual activity [6, 47]: 93.9%
residual activity [7, 47]: 76.2%
residual activity [8, 47]: 83.5%
residual activity [9, 47]: 70.4%
residual activity [10, 47]: 79.3%
Ki ([11]; read-out: Ki): 0.125 µM
Ki ([11]; read-out: pKi (converted)): 0.112 µM
residual activity [12, 47]: 80.1%
residual activity [13, 47]: 100%
residual activity [14, 47]: 54.8%
residual activity [15, 47]: 100%
residual activity [16, 47]: 91.4%
residual activity [17, 47]: 76.9%
residual activity [18, 47]: 100%
residual activity [19, 47]: 80.4%
residual activity [20, 47]: 70.7%
residual activity [21, 47]: 87.7%
residual activity [22, 47]: 31.4%
residual activity [23, 47]: 91.6%
residual activity [24, 47]: 84.6%
residual activity [25, 47]: 60.4%
residual activity [26, 47]: 97.9%
residual activity [27, 47]: 91.1%
residual activity [28, 47]: 100%
residual activity [29, 47]: 98.2%
inhibition [30]: 10.7%
residual activity [31, 47]: 75.6%
residual activity [32, 47]: 94.2%
residual activity [33, 47]: 88.4%
residual activity [34, 47]: 100%
residual activity [35, 47]: 99.5%
residual activity [36, 47]: 96.2%
inhibition [37]: 52.3%
residual activity [38, 47]: 81.2%
residual activity [39, 47]: 85.5%
residual activity [40, 47]: 85.5%
residual activity [41, 47]: 97.2%
residual activity [42, 47]: 100%
residual activity [43, 47]: 100%
residual activity [44, 47]: 71.1%
residual activity [45, 47]: 75.8%
